Data taken from patent publication EP0465323A1, “Pyrimidin derivatives, angiotensin II receptor antagonists, their process of preparation and pharmaceutical compositions containing them” (LABORATOIRES UPSA, priority 1990, dated 1992).

Tested on: récepteurs surrénaliens de l'angiotensine II
Assay: Displacement of radioligand [125I]-SIAII specifically bound to rat adrenal angiotensin II receptors
Assay type: binding
Settings: rat adrenal homogenate, 60 min at 25°C
Source text: L'affinité des produits des exemples pour les récepteurs de l'angiotensine Il est évaluée par technique de déplacement d'un radioligand spécifiquement fixé sur les récepteurs surrénaliens de l'angiotensine II, chez le rat.
Une aliquote d'un homogénat de surrénales de rat incube en présence d'une concentration unique de [^125| ] - SIAII (Sar^1, Tyr^4, lle^8- angiotensine II), antagoniste des récepteurs de l'angiotensine II, et de deux concentrations d'agents compétiteurs (10^-5 M, 10-^7 M), durant 60 min à 25°C.
La réaction est achevée par ajout de tampon, puis rapide filtration à travers des filtres de papier de verre. La liaison non spécifique est déterminée en présence d'angiotensine II.
Les résultats sont exprimés, pour les concentrations testées, en pourcentage de déplacement du radioligand spécifiquement fixé sur les récepteurs surrénaliens de l'angiotensine II.

| % de déplacement du ligand marqué (competitor 1E-5M, 10 µM) [%] | % de déplacement du ligand marqué (competitor 1E-7M, 0.1 µM) [%] | SMILES |
| --- | --- | --- |
| 72 | 0 | CCCCc1nc(-c2ccccc2)nc(SCC(=O)OCC)c1Cc1ccc(NC(=O)c2ccccc2S(=O)(=O)O)cc1 [Exemple 75, Acide [[n-butyl-6 phényl-2 (éthoxy carbonyl méthyl thio)-4 pyrimidine-yl-5]méthylphényl-yl-4] amino carbonyl-2 benzène sulfonique] |
| 84 | 65 | CCCc1nc(C)nc(SCCO)c1Cc1ccc(NC(=O)c2ccccc2S(=O)(=O)O)cc1 [Exemple 54, Acide [(n-Propyl-6 méthyl-2 hydroxyéthylmercapto-4 pyrimidine-yl-5)methylphenyl-yl-4] amino carbonyl-2 benzène sulfonique] |
| 96 | 64 | CCCc1nc(C)n(CC(=O)OCC)c(=O)c1Cc1ccc(NC(=O)c2ccccc2S(=O)(=O)O)cc1 [Exemple 13] |
| 74 | 41 | CCCCc1nc(C(C)C)nc(SCCO)c1Cc1ccc(NC(=O)c2ccccc2S(=O)(=O)O)cc1 [Exemple 78, Acide [[n-butyl-6 isopropyl-2 (hydroxy éthyl thio)-4 pyrimidine-yl-5]méthylphényl-yl-4] amino carbonyl-2 benzène sulfonique] |
| 93 | 62 | CCCc1nc(C)nc(SCC(=O)OCC)c1Cc1ccc(NC(=O)c2ccccc2S(=O)(=O)O)cc1 [Exemple 24, Acide [[n-Propyl-6 méthyl-2 (éthoxycarbonyl méthyl mercapto)-4 pyrimidine-yl-5]méthylphényl-yl-4] amino carbonyl-2 benzène sulfonique] |
| 86 | 60 | CCCCc1nc(C)nc(SCCO)c1Cc1ccc(NC(=O)c2ccccc2S(=O)(=O)O)cc1 [Exemple 55, Acide [(n-butyl-6 méthyl-2 hydroxyéthylmercapto-4 pyrimidine-yl-5)méthylphényl-yl-4] amino carbonyl-2 benzène sulfonique] |
| 80 | 69 | CCCCc1nc(C)nc(N)c1Cc1ccc(NC(=O)c2ccccc2S(=O)(=O)O)cc1 [Exemple 57, Acide [(n-Butyl-6 méthyl-2 amino-4 pyrimidine-yl-5)méthylphényl-yl-4] amino carbonyl-2 benzène sulfonique] |
| 96 | 63 | CCCCc1nc(C)nc(SCC(=O)OCC)c1Cc1ccc(NC(=O)c2ccccc2S(=O)(=O)O)cc1 [Exemple 61, Acide [[n-Butyl-6 Méthyl-2 (éthoxycarbonyl méthyl thio)-4 pyrimidine-yl-5]méthylphényl-yl-4] amino carbonyl-2 benzène sulfonique] |
| 63 | 4 | CCCCc1nc(-c2ccccc2)nc(SCCO)c1Cc1ccc(NC(=O)c2ccccc2S(=O)(=O)O)cc1 [Exemple 77, Acide [[n-butyl-6 phényl-2 (hydroxy éthyl thio)-4 pyrimidine-yl-5]méthylphényl-yl-4] amino carbonyl-2 benzène sulfonique] |
| 93 | 37 | CCCCc1nc(C(C)C)nc(SCC(=O)OCC)c1Cc1ccc(NC(=O)c2ccccc2S(=O)(=O)O)cc1 [Exemple 76, Acide [[n-butyl-6 isopropyl-2 (éthoxy carbonyl méthyl thio)-4 pyrimidine-yl-5]méthylphényl-yl-4] amino carbonyl-2 benzène sulfonique] |

More lines, now with the values behind:

| SMILES | % de déplacement du ligand marqué (competitor 1E-5M, 10 µM) [%] | % de déplacement du ligand marqué (competitor 1E-7M, 0.1 µM) [%] |
| --- | --- | --- |
| CCCc1nc(C)nc(OC)c1Cc1ccc(-c2ccccc2-c2nn[nH]n2)cc1 [Exemple 31, n-Propyl-6 méthy1-2 méthoxy-4 [(tétrazol-yl-5)-2' biphényl-yl-4] méthyl-5 pyrimidine] | 71 | 51 |
| CCCc1nc(C)nc(OC(=O)N(C)C)c1Cc1ccc(NC(=O)c2ccccc2S(=O)(=O)O)cc1 [Exemple 27, Acide [[n-propyl-6 méthyl-2 (N,N-diméthyl amino carbonyloxy)-4 pyrimidine-yl-5]méthylphényl-yl-4] amino carbonyl-2 benzène sulfonique] | 76 | 20 |
| CCCc1nc(C)nc(N2CCN(c3ccccc3OC)CC2)c1Cc1ccc(NC(=O)c2ccccc2S(=O)(=O)O)cc1 [Exemple 58, Acide [[n-Propyl-6 méthyl-2 ((méthoxy-2 phényl)pipérazine-yl-4)-4 pyrimidine-yl-5]méthylphényl-yl-4] amino carbonyl-2 benzène sulfonique] | 78 | 53 |
| CCCc1nc(C)nc(SC)c1Cc1ccc(NC(=O)c2ccccc2S(=O)(=O)O)cc1 [Exemple 59, Acide [[n-Propyl-6 méthyl-2 méthylthio-4 pyrimidine-yl-5]méthylphényl-yl-4] amino carbonyl-2 benzène sulfonique] | 89 | 57 |
| CCCc1nc(C)nc(N2CCOCC2)c1Cc1ccc(NC(=O)c2ccccc2S(=O)(=O)O)cc1 [Exemple 56, Acide [[n-Propyl-6 méthyl-2 (morpholine-yl-1)-4 pyrimidine-yl-5]méthylphényl-yl-4] amino carbonyl-2 benzène sulfonique] | 86 | 59 |
| CCCc1nc(C)n(CC(=O)OCC)c(=O)c1Cc1ccc(-c2ccccc2-c2nn[nH]n2)cc1 [Exemple 32, [n-Propyl-4 méthyl-2 oxo-6 [(tétrazol-yl-5)-2' biphényl-yl-4]méthyl-5 pyrimidine-yl-1 (6H)-] acétate d'éthyle] | 94 | 67 |
| CCCc1nc(C)nc(OCCO)c1Cc1ccc(-c2ccccc2C(=O)O)cc1 [Exemple 16, Acide [n-propyl-6 méthyl-2 hydroxy éthyloxy-4 pyrimidine-yl-5] méthyl-4' biphényl-2 carboxylique] | 65 | 31 |
| CCCc1nc(C)n(CC(=O)O)c(=O)c1Cc1ccc(NC(=O)c2c(Cl)ccc(Cl)c2C(=O)O)cc1 [Exemple 14, Acide [n-propyl-4 méthyl-2 oxo-6 [(carboxy-2 dichloro-3,6-phényl)carbonylamino-4 phénylméthyl]-5 pyrimidine-yl-1 (6H)-] acétique] | 81 | 38 |
| CCCc1nc(C)nc(SCC(=O)OCC)c1Cc1ccc(-c2ccccc2-c2nn[nH]n2)cc1 [Exemple 33, [n-Propyl-6 méthyl-2 [(tétrazol-yl-5)-2' biphényl-yl-4]méthyl-5 pyrimidine-yl-4] mercapto acétate d'éthyle] | 69 | 62 |
